Data published in patent publication US9296734B2 (AMGEN INC., priority 2013, dated 2016).
pIC50: −log10 of the molar value.

Each compound was assayed against Cathepsin D (Cat D) (Homo sapiens (Human), UniProt P07339) (assay: In vitro enzymatic Cathepsin D (Cat D) FRET assay). Conditions: average IC50, cathepsin D enzyme assay; read-out: CatD IC50.
Sequence of Cathepsin D (Cat D) (P07339 65-412, species assumed): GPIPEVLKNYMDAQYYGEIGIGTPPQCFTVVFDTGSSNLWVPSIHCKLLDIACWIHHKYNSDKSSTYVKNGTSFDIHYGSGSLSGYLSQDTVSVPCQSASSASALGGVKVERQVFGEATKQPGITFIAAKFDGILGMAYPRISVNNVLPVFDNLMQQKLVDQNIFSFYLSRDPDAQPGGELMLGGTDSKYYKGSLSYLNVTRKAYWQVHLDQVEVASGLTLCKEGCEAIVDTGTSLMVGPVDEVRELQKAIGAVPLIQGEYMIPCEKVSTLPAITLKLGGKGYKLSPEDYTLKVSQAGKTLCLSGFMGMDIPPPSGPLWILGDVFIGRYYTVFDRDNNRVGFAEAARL
Type: biochemical
Experimental: In Vitro Enzymatic Cathepsin D (Cat D) FRET (Fluorescence Resonance Energy Transfer) Assay
Recombinant Cat D was expressed in CHO cells. The assay buffer for CathepsinD is 0.05 M citrate pH 3.5, 10% DMSO final, 5 mM CHAPS. […] The assays are effectively started by the addition of different FRET substrates (20 nM for Cat D) and the combination is incubated for one hour. The FRET assay is terminated with by addition of Tris buffer, which raises the pH to neutrality, and the fluorescence is determined. The FRET substrate is a peptide with commercially available fluorophore and quencher, on opposite sides of the BACE cleavage site. […] Proteolytic cleavage of the FRET substrate releases quenching of fluorescence (Cat D excitation 500 nm and emission 580 nm).
In addition, the cathepsin D and cathepsin E assays are described in PCT publication WO2011069934.
Compound `CC#CCOc1ccc(C(=O)Nc2cc(F)c(F)c([C@]3(CF)C[C@@H](C(F)(F)F)OC(N)=N3)c2)nc1` [Example 160, N-(3-((4S,6S)-2-amino-4-(fluoromethyl)-6-(trifluoromethyl)-5,6-dihydro-4H-1,3-oxazin-4-yl)-4,5-difluorophenyl)-5-(but-2-yn-1-yloxy)picolinamide] has a pIC50 of less than 3.40.
Work on `N#Cc1cnc2c(Nc3cc(F)c(F)c([C@]4(CF)C[C@@H](C(F)(F)F)OC(N)=N4)c3)nccc2c1` [Example 162, 8-((3-((4S,6S)-2-amino-4-(fluoromethyl)-6-(trifluoromethyl)-5,6-dihydro-4H-1,3-oxazin-4-yl)-4,5-difluorophenyl)amino)-1,7-naphthyridine-3-carbonitrile] yielded a pIC50 of less than 3.40.
Compound `COc1cnc2c(Nc3cc(F)c(F)c([C@]4(C)C[C@@H](C(F)(F)F)OC(N)=N4)c3)nccc2n1` [Example 178, (4S,6S)-4-(2,3-difluoro-5-((2-methoxypyrido[3,4-b]pyrazin-5-yl)amino)phenyl)-4-methyl-6-(trifluoromethyl)-5,6-dihydro-4H-1,3-oxazin-2-amine] has a pIC50 of 3.28.
In the case of `COc1cnc2c(Nc3cc(F)c(F)c([C@]4(C)C[C@@H](C(F)(F)F)OC(N)=N4)c3)nccc2c1` [Example 179], the pIC50 was less than 3.40.

Same assay, conditions: average; read-out: CatD IC50
Work on `Cc1cc(OC(F)F)cnc1C(=O)Nc1cc(F)c(F)c([C@]2(C)C[C@@H](C(F)(F)F)OC(N)=N2)c1` [Example 174, N-(3-((4S,6S)-2-amino-4-methyl-6-(trifluoromethyl)-5,6-dihydro-4H-1,3-oxazin-4-yl)-4,5-difluorophenyl)-5-(difluoromethoxy)-3-methylpicolinamide] yielded a pIC50 of less than 3.40.
Work on `CC#CCOc1cnc(C(=O)Nc2cc(F)c(F)c([C@]3(C)C[C@@H](C(F)(F)F)OC(N)=N3)c2)c(C)c1` [Example 188, N-(3-((4S,6S)-2-amino-4-methyl-6-(trifluoromethyl)-5,6-dihydro-4H-1,3-oxazin-4-yl)-4,5-difluorophenyl)-5-(but-2-yn-1-yloxy)-3-methylpicolinamide] yielded a pIC50 of 3.54.
With `Cc1cc(OCC(F)(F)F)cnc1C(=O)Nc1cc(F)c(F)c([C@]2(C)C[C@@H](C(F)(F)F)OC(N)=N2)c1` [Example 194, N-(3-((4S,6S)-2-amino-4-methyl-6-(trifluoromethyl)-5,6-dihydro-4H-1,3-oxazin-4-yl)-4,5-difluorophenyl)-3-methyl-5-(2,2,2-trifluoroethoxy)picolinamide] the pIC50 was less than 3.40.
Compound `Cc1nc(OCC(F)(F)F)cnc1C(=O)Nc1cc(F)c(F)c([C@]2(C)C[C@@H](C(F)(F)F)OC(N)=N2)c1` [Example 197, N-(3-((4S,6S)-2-amino-4-methyl-6-(trifluoromethyl)-5,6-dihydro-4H-1,3-oxazin-4-yl)-4,5-difluorophenyl)-3-methyl-5-(2,2,2-trifluoroethoxy)pyrazine-2-carboxamide] has a pIC50 of less than 3.40.
`C[C@@]1(c2cc(NC(=O)c3ncc(C(F)F)cc3Cl)cc(F)c2F)C[C@@H](C(F)(F)F)OC(N)=N1` [Example 198, N-(3-((4S,6S)-2-amino-4-methyl-6-(trifluoromethyl)-5,6-dihydro-4H-1,3-oxazin-4-yl)-4,5-difluorophenyl)-3-chloro-5-(difluoromethyl)picolinamide] was tested, and the pIC50 was less than 3.40.
For `C[C@@]1(c2cc(NC(=O)c3ccc(C(F)F)cn3)cc(F)c2F)C[C@@H](C(F)(F)F)OC(N)=N1` [Example 200, N-(3-((4S,6S)-2-amino-4-methyl-6-(trifluoromethyl)-5,6-dihydro-4H-1,3-oxazin-4-yl)-4,5-difluorophenyl)-5-(difluoromethyl)picolinamide], the pIC50 was 3.00.
With `COc1cnc(C(=O)Nc2cc(F)c(F)c([C@]3(C)C[C@@H](C(F)(F)F)OC(N)=N3)c2)c(C)c1` [Example 202, N-(3-((4S,6S)-2-amino-4-methyl-6-(trifluoromethyl)-5,6-dihydro-4H-1,3-oxazin-4-yl)-4,5-difluorophenyl)-5-methoxy-3-methylpicolinamide] the pIC50 was 2.94.
`C[C@@]1(c2cc(NC(=O)c3ccc(Cl)cn3)cc(Cl)c2F)C[C@@H](C(F)(F)F)OC(N)=N1` [Example 207, N-(3-((4S,6S)-2-amino-4-methyl-6-(trifluoromethyl)-5,6-dihydro-4H-1,3-oxazin-4-yl)-5-chloro-4-fluorophenyl)-5-chloropicolinamide] was tested, and the pIC50 was 3.41.
With `Cc1cc(C#N)cnc1C(=O)Nc1cc(Cl)c(F)c([C@]2(C)C[C@@H](C(F)(F)F)OC(N)=N2)c1` [Example 210, N-(3-((4S,6S)-2-amino-4-methyl-6-(trifluoromethyl)-5,6-dihydro-4H-1,3-oxazin-4-yl)-5-chloro-4-fluorophenyl)-5-cyano-3-methylpicolinamide] the pIC50 was 3.38.
With `COc1cnc(C(=O)Nc2cc(Cl)c(F)c([C@]3(C)C[C@@H](C(F)(F)F)OC(N)=N3)c2)c(C)n1` [Example 215, N-(3-((4S,6S)-2-amino-4-methyl-6-(trifluoromethyl)-5,6-dihydro-4H-1,3-oxazin-4-yl)-5-chloro-4-fluorophenyl)-5-methoxy-3-methylpyrazine-2-carboxamide] the pIC50 was less than 3.40.
In the case of `Cc1cc(C(F)F)cnc1C(=O)Nc1cc(C)c(F)c([C@]2(CF)C[C@@H](C(F)(F)F)OC(N)=N2)c1` [Example 216, N-(3-((4S,6S)-2-amino-4-(fluoromethyl)-6-(trifluoromethyl)-5,6-dihydro-4H-1,3-oxazin-4-yl)-4-fluoro-5-methylphenyl)-5-(difluoromethyl)-3-methylpicolinamide], the pIC50 was less than 3.40.
`Cc1cc(NC(=O)c2ccc(C(F)F)cn2)cc([C@]2(CF)C[C@@H](C(F)(F)F)OC(N)=N2)c1F` [Example 221, N-(3-((4S,6S)-2-amino-4-(fluoromethyl)-6-(trifluoromethyl)-5,6-dihydro-4H-1,3-oxazin-4-yl)-4-fluoro-5-methylphenyl)-5-(difluoromethyl)picolinamide] was tested, and the pIC50 was 3.00.
`Cc1cc(NC(=O)c2ccc(F)cn2)cc([C@]2(CF)C[C@@H](C(F)(F)F)OC(N)=N2)c1F` [Example 223, N-(3-((4S,6S)-2-amino-4-(fluoromethyl)-6-(trifluoromethyl)-5,6-dihydro-4H-1,3-oxazin-4-yl)-4-fluoro-5-methylphenyl)-5-fluoropicolinamide] showed a pIC50 of 3.08.
`COc1ccc(C(=O)Nc2cc(C)c(F)c([C@]3(CF)C[C@@H](C(F)(F)F)OC(N)=N3)c2)nc1` [Example 229, N-(3-((4S,6S)-2-amino-4-(fluoromethyl)-6-(trifluoromethyl)-5,6-dihydro-4H-1,3-oxazin-4-yl)-4-fluoro-5-methylphenyl)-5-methoxypicolinamide] gave a pIC50 of 2.95.
For `NC1=N[C@](CF)(c2cc(NC(=O)c3ncc(Cl)cc3F)cc(F)c2F)C[C@@H](C(F)(F)F)O1` [Example 233, N-(3-((4S,6S)-2-amino-4-(fluoromethyl)-6-(trifluoromethyl)-5,6-dihydro-4H-1,3-oxazin-4-yl)-4,5-difluorophenyl)-5-chloro-3-fluoropicolinamide], the pIC50 was less than 3.40.
`C[C@@]1(c2cc(NC(=O)c3ccc(Cl)cn3)cc(F)c2Cl)C[C@@H](C(F)(F)F)OC(N)=N1` [Example 236, N-(3-((4S,6S)-2-amino-4-methyl-6-(trifluoromethyl)-5,6-dihydro-4H-1,3-oxazin-4-yl)-4-chloro-5-fluorophenyl)-5-chloropicolinamide] was tested, and the pIC50 was 3.39.
`COc1cnc(C(=O)Nc2cc(F)c(Cl)c([C@]3(C)C[C@@H](C(F)(F)F)OC(N)=N3)c2)cn1` [Example 237, N-(3-((4S,6S)-2-amino-4-methyl-6-(trifluoromethyl)-5,6-dihydro-4H-1,3-oxazin-4-yl)-4-chloro-5-fluorophenyl)-5-methoxypyrazine-2-carboxamide] was tested, and the pIC50 was 3.71.

The compounds below were run on Aβ40 in conditioned medium of cells stably expressing Amyloid Precursor Protein (APP) (assay: In vitro BACE cell-based assay (Aβ40 sandwich ELISA)). Conditions: Homo sapiens, HEK293, average IC50; HEK cells; read-out: HEK cell assay IC50.
Experimental: In Vitro BACE Cell-Based Assay
The cell-based assay measures inhibition or reduction of Aβ40 in conditioned medium of test compound treated cells expressing amyloid precursor protein.
Cells stably expressing Amyloid Precursor Protein (APP) were plated at a density of 40K cells/well in 96 well plates (Costar). The cells were cultivated for 24 hours at 37° C. and 5% CO2 in DMEM supplemented with 10% FBS. The test compounds were then added to cells in 10-point dose response concentrations with the starting concentration being either 100 μM or 10 μM. The compounds were diluted from stock solutions in DMSO and the final DMSO concentration of the test compounds on cells was 0.1%. After 24 h of incubation with the test compounds the supernatant conditioned media was collected and the Aβ 40 levels were determined using a sandwich ELISA. The IC50 of the compound was calculated from the percent of control or percent inhibition of Aβ 40 as a function of the concentration of the test compound.
The sandwich ELISA to detect Aβ 40 was performed in 96 well microtiter plates, which were pre-treated with goat anti-rabbit IgG (Pierce). The capture and detecting antibody pair that were used to detect Aβ 40 from cell supernatants were affinity purified pAb40 (Biosource) and biotinylated 6E10 (Signet Labs Inc.), respectively. The optimal concentration for the pAb40 antibody was 3 μg/ml in Superblock/TBS (Pierce) that was supplemented with 0.05% Tween 20 (Sigma).
Cellular supernatants were incubated with the capture antibody for 3 h at 4° C., followed by 3 wash steps in TBS-tween (0.05%). The detecting antibody incubation was for 2 h at 4° C., again followed by the wash steps as described previously. The final readout of the ELISA is Time-Resolved Fluorescence (counts per minute) using Delfia reagents Streptavidin-Europium and Enhancement solutions (Perkin Elmer) and the Victor 2 multilabel counter (Perkin Elmer).
Work on `N#Cc1cnc2c(Nc3ccc(F)c([C@]4(CF)C[C@@H](C(F)(F)F)OC(N)=N4)c3)ncnc2c1` [Example 23, 4-((3-((4S,6S)-2-amino-4-(fluoromethyl)-6-(trifluoromethyl)-5,6-dihydro-4H-1,3-oxazin-4-yl)-4-fluorophenyl)amino)pyrido[3,2-d]pyrimidine-7-carbonitrile] yielded a pIC50 of 6.72.
